These results are taken from patent publication US20080009418A1, “Selective Inhibitors” (Alchemia LTD., priority 2004, published 2008).

Each structure is given as a SMILES string.

In one experiment the target is T1, Human μ-opioid (MOP) (Homo sapiens, UniProt P35372).
T1 construct: purchased Perkin Elmer Biosignal
Briefly: Radioligand binding, human μ-opioid (MOP) membranes, FlashPlate, [3H]-Naloxone. Particulars: compound at 10 μM, [3H]-Naloxone. A digest of the protocol:
(§1)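 Cloned human receptor membranes were coated onto FlashPlate wells and incubated with radioligand and compound (added from a 0.5 mM DMSO daughter plate) for 1 hour at room temperature in the dark. Scintillation counting gave percent inhibition, with DMSO defining total and reference ligand defining non-specific binding.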

The next experiment addresses T2, Human neurokinin (NK1) (Homo sapiens, UniProt P25103).
T2 construct: purchased Perkin Elmer Biosignal
Briefly: Radioligand binding, human neurokinin NK1 membranes, filtration, [125I]-Substance P. Particulars: compound at 10 μM, [125I]-Substance P. An outline of the steps: (§2)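 Filtration binding on cloned human receptor membranes (1 Unit/well), [125I]-Substance P for NK1 and [3H]-Diprenorphine for KOP, 1 h at room temperature. Filters PEI-presoaked, washed with cold 50 mM Tris-HCl pH 7.4, counted by scintillation; percent inhibition calculated, reference ligand defining non-specific binding.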

The target in another experiment is T3, Human Melanocortin (MC4) (Homo sapiens, UniProt P32245).
T3 construct: purchased Perkin Elmer Biosignal
As to the kind of experiment: Radioligand binding, human melanocortin MC4 membranes, FlashPlate, [125I]-NDP-αMSH. Particulars: compound at 10 μM, [125I]-NDP-αMSH. A digest of the protocol:
as §1

A further experiment concerns the target T4, Human Melanocortin (MC3) (Homo sapiens, UniProt P41968).
T4 construct: purchased Perkin Elmer Biosignal
Briefly: Radioligand binding, human melanocortin MC3 membranes, FlashPlate, [125I]-NDP-αMSH. Particulars: compound at 10 μM, [125I]-NDP-αMSH. An outline of the steps:
as §1

A further experiment addresses T5, Human κ-Opioid (KOP) (Homo sapiens, UniProt P41145).
T5 construct: purchased Perkin Elmer Biosignal
Briefly: Radioligand binding, human κ-opioid (KOP) membranes, filtration, [3H]-Diprenorphine. Particulars: compound at 10 μM, [3H]-Diprenorphine. An outline of the steps: as §2

The target of a further experiment is T6, Human δ-opioid (DOP) (Homo sapiens, UniProt P41143).
T6 construct: purchased Perkin Elmer Biosignal
Briefly: Radioligand binding, human δ-opioid (DOP) membranes, FlashPlate, [3H]-Bremazocine. Particulars: compound at 10 μM, [3H]-Bremazocine. An outline of the steps:
as §1

Experiment [1] has as its target T7, Human melanin-concentrating hormone (MCH1) (Homo sapiens, UniProt Q99705).
T7 construct: purchased Perkin Elmer Biosignal
As to the kind of experiment: Radioligand binding, human melanin-concentrating hormone MCH1 membranes, FlashPlate, [125I]-S36057. To be noted: compound at 10 μM. An outline of the steps: as §1

The target of the next experiment is T8, Human melanocortin (MC5) (Homo sapiens, UniProt P33032).
T8 construct: purchased Perkin Elmer Biosignal
Briefly: Radioligand binding, human melanocortin MC5 membranes, FlashPlate, [125I]-NDP-αMSH. Particulars: compound at 10 μM, [125I]-NDP-αMSH. An outline of the steps:
as §1

For the next experiment, the target named is T9, Human opioid (ORL1) (Homo sapiens, UniProt P41146).
T9 construct: purchased Perkin Elmer Biosignal
As to the kind of experiment: Radioligand binding, human opioid ORL1 membranes, FlashPlate, [125I]-Nociceptin. Particulars: compound at 10 μM, [125I]-Nociceptin. A digest of the protocol:
as §1

The target in a further experiment is T10, Mouse urotensin (mUR2) (Mus musculus, UniProt Q8VIH9).
T10 construct: purchased Perkin Elmer Biosignal
T10 sequence (Q8VIH9 1-385): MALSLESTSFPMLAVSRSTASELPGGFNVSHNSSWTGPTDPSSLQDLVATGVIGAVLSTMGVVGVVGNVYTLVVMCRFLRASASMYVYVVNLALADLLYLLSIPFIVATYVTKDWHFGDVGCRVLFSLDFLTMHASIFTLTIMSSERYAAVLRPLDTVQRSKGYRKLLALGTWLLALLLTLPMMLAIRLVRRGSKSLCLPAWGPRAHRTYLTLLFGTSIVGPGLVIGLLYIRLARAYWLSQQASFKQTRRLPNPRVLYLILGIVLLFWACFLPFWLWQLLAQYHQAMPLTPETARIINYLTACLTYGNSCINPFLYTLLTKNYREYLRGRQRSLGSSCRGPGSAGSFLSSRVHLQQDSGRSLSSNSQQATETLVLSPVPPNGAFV
As to the kind of experiment: Radioligand binding, mouse urotensin mUR2 membranes, FlashPlate, [125I]-Urotensin II. To be noted: compound at 10 μM, [125I]-Urotensin II. An outline of the steps: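 Cloned mouse urotensin (mUR2) receptor membranes from Perkin Elmer Biosignal were immobilized in FlashPlate microplates using a proprietary coating. Each well got 19.5 μl buffer, then 0.5 μl of DMSO, reference ligand, or compound. Adding 5 μl of [125I]-Urotensin II, diluted to 5× final concentration in binding buffer, started binding. Plates were sealed with TopSeal-A and incubated 1 hour at room temperature in the dark. Wells were counted for 30 seconds each on a TopCount after a 60-second delay, and percentage inhibition was calculated.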

The target of experiment [2] is T11, Human neuropeptide Y (NPY-Y1) (Homo sapiens, UniProt P25929).
T11 construct: purchased Perkin Elmer Biosignal
T11 sequence (P25929 1-384): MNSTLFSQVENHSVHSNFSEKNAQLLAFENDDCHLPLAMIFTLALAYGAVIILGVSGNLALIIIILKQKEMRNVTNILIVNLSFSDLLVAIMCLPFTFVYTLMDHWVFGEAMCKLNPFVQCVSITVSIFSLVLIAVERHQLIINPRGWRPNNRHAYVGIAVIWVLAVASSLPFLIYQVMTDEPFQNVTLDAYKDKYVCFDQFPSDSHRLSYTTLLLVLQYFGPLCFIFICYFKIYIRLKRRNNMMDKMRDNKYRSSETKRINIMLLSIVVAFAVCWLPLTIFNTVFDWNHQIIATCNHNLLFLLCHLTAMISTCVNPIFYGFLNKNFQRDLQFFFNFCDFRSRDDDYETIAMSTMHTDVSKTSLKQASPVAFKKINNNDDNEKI
Briefly: Radioligand binding, human neuropeptide Y NPY-Y1 membranes, FlashPlate, [125I]-PYY. To be noted: compound at 10 μM, [125I]-PYY. A digest of the protocol: as §1

The mark [3] stands for this setting: [125I]-S36057, human MCH1 membranes.

T6 sequence (P41143 whole entry): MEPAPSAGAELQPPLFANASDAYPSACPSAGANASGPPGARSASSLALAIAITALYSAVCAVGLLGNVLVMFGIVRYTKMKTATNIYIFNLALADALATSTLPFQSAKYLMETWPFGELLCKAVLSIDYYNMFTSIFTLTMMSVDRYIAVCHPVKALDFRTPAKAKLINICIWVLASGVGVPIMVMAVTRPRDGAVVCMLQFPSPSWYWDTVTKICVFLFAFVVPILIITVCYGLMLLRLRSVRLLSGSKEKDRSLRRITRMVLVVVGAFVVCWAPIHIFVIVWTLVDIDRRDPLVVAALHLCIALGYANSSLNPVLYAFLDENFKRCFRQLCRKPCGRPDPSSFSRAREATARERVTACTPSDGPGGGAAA
T5 sequence (P41145 whole entry): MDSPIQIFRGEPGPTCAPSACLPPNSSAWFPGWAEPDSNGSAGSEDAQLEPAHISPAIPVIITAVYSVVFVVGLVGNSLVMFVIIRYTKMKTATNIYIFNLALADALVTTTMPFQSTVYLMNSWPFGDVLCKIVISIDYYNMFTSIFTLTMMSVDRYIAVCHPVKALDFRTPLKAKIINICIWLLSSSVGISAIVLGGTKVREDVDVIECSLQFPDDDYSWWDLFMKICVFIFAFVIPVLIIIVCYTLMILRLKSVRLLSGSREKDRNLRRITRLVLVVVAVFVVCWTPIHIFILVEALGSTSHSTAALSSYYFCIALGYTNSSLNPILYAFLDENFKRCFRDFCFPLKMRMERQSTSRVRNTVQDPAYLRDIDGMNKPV
T3 sequence (P32245 whole entry): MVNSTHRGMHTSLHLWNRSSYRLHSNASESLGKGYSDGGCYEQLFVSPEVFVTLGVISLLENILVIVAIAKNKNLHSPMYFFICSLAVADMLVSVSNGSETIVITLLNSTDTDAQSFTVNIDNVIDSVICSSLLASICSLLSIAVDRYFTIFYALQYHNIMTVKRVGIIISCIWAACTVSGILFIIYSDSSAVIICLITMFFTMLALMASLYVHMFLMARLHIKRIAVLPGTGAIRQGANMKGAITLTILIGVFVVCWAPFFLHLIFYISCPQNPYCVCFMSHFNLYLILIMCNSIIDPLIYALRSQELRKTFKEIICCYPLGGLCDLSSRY
T1 sequence (P35372 whole entry): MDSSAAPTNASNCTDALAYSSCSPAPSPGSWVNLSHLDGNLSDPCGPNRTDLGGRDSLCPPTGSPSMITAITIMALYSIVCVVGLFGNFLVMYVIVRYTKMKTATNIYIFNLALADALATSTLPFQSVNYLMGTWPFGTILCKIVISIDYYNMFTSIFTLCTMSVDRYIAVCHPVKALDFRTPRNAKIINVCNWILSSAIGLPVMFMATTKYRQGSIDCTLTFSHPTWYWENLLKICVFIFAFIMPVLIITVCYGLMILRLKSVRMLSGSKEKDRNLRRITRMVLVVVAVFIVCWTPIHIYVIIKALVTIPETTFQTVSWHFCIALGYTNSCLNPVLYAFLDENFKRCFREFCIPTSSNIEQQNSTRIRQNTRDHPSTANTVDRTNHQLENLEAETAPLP
T2 sequence (P25103 whole entry): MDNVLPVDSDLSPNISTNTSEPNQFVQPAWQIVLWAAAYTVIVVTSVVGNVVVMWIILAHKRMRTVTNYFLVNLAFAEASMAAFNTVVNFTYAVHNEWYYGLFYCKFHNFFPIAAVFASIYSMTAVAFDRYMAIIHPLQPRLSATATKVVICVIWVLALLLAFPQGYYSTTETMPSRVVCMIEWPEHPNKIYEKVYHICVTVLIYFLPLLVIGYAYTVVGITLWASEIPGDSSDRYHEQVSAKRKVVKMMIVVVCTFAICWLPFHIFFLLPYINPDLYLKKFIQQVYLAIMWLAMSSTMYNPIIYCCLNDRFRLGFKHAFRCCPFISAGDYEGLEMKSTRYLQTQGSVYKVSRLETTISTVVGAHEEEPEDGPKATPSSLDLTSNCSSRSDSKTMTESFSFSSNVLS
T4 sequence (P41968 whole entry): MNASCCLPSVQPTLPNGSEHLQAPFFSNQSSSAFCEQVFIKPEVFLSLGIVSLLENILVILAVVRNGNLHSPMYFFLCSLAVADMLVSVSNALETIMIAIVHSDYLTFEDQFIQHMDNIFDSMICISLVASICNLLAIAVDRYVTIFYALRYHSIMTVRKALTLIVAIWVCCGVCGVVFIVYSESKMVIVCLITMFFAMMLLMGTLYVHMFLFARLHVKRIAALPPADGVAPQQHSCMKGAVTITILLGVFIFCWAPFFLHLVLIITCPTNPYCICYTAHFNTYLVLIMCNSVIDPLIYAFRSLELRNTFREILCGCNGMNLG
T8 sequence (P33032 whole entry): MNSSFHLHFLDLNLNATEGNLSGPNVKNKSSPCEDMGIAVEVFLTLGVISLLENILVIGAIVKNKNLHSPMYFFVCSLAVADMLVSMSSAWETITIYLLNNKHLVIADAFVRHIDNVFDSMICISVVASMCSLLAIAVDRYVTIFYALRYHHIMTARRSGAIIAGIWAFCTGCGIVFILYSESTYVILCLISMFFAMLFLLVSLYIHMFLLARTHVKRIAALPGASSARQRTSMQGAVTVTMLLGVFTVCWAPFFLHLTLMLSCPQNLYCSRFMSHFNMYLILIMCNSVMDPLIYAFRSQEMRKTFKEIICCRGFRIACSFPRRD
T9 sequence (P41146 whole entry): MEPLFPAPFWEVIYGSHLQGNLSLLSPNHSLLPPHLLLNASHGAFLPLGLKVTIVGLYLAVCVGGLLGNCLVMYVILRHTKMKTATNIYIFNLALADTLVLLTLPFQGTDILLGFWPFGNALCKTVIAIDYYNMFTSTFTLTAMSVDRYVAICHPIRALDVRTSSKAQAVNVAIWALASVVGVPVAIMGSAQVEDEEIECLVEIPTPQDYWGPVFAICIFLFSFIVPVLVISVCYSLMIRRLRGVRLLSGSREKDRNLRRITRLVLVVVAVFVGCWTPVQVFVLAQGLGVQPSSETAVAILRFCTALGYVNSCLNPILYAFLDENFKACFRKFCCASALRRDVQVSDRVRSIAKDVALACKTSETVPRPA
T7 sequence (Q99705 whole entry): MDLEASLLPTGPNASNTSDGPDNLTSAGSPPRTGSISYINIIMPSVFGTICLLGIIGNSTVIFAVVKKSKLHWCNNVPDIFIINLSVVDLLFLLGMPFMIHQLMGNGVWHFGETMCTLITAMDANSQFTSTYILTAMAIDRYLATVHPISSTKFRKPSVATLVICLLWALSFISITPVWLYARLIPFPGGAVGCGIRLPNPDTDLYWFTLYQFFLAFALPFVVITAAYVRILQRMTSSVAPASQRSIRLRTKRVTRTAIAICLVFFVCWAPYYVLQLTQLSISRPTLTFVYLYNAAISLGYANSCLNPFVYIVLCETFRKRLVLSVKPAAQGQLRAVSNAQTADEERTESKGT

In the case of `COC[C@H]1OC(OCc2ccc(-c3ccccc3)cc2)[C@H](NC(=O)CCCNC(=N)N)[C@@H](OCc2cccc(O)c2)[C@@H]1O` (some centres unmarked) [compound 132], at Human μ-opioid (MOP), the “A7 radioligand binding, percentage inhibition” value is recorded as “+ (“+” indicates greater than 50% inhibition at 10 μM)”. The “A8 radioligand binding, percentage inhibition” value at Human neurokinin (NK1) is given as “− (“−” indicates less than 50% inhibition at 10 μM)”. Besides, the “A4 radioligand binding, percentage inhibition” value on Human Melanocortin (MC4) is recorded as “− (“−” indicates less than 50% inhibition at 10 μM)”. On Human Melanocortin (MC3), the “A3 radioligand binding, percentage inhibition” value is “− (“−” indicates less than 50% inhibition at 10 μM)”. Moreover, the “A2 radioligand binding, percentage inhibition” value on Human κ-Opioid (KOP) is reported as “+ (“+” indicates greater than 50% inhibition at 10 μM)”. For the same molecule, on Human δ-opioid (DOP), the “A1 radioligand binding, percentage inhibition” value was “− (“−” indicates less than 50% inhibition at 10 μM)”. In [1] ([125I]-S36057), the “A6 radioligand binding, percentage inhibition” value is reported as “− (“−” indicates less than 50% inhibition at 10 μM)”. In addition, the “A5 radioligand binding, percentage inhibition” value on Human melanocortin (MC5) is given as “− (“−” indicates less than 50% inhibition at 10 μM)”. Also, on Human opioid (ORL1), the “A10 radioligand binding, percentage inhibition” value is “− (“−” indicates less than 50% inhibition at 10 μM)”. On Mouse urotensin (mUR2), the “A11 radioligand binding, percentage inhibition” value is “− (“−” indicates less than 50% inhibition at 10 μM)”. In addition, the “A9 radioligand binding, percentage inhibition” value in experiment [2] is recorded as “− (“−” indicates less than 50% inhibition at 10 μM)”.

With `N=C(N)NCCC(=O)NC1C(OCc2ccc(Cl)cc2)OC(COCc2ccc(Cl)cc2)C(O)C1OCc1ccc2ccccc2c1` (centres unmarked) [compound 431], on Human μ-opioid (MOP) (human MOP membranes), the “A7: inhibition of radioligand binding” value is reported as “− (“−” indicates less than 50% inhibition at 10 μM)”. Moreover, the “A8: inhibition of radioligand binding” value at Human neurokinin (NK1) (human NK1 membranes) is “+ (“+” indicates greater than 50% inhibition at 10 μM)”. Further, the “A4: inhibition of radioligand binding” value on Human Melanocortin (MC4) (human MC4 membranes) is “+ (“+” indicates greater than 50% inhibition at 10 μM)”. At Human Melanocortin (MC3) (human MC3 membranes), the “A3: inhibition of radioligand binding” value is reported as “+ (“+” indicates greater than 50% inhibition at 10 μM)”. In addition, on Human κ-Opioid (KOP) (human KOP membranes), the “A2: inhibition of radioligand binding” value is on record as “− (“−” indicates less than 50% inhibition at 10 μM)”. In addition, the “A1: inhibition of radioligand binding” value on Human δ-opioid (DOP) (human DOP membranes) is given as “− (“−” indicates less than 50% inhibition at 10 μM)”. Moreover, the “A6: inhibition of radioligand binding” value in [1] (setting [3]) is listed as “+ (“+” indicates greater than 50% inhibition at 10 μM)”. Further, the “A5: inhibition of radioligand binding” value on Human melanocortin (MC5) (human MC5 membranes) was “+ (“+” indicates greater than 50% inhibition at 10 μM)”. The “A10: inhibition of radioligand binding” value at Human opioid (ORL1) (human ORL1 membranes) is “+ (“+” indicates greater than 50% inhibition at 10 μM)”. Further, the “A11: inhibition of radioligand binding” value at Mouse urotensin (mUR2) (mouse mUR2 membranes) is reported as “− (“−” indicates less than 50% inhibition at 10 μM)”. In addition, the “A9: inhibition of radioligand binding” value in experiment [2] (human NPY-Y1 membranes) is “− (“−” indicates less than 50% inhibition at 10 μM)”.

Take `COCC1OC(OCc2ccc(Cl)cc2)C(NC(=O)CCN)C(OCc2ccc(Cl)cc2)C1O` (centres unmarked) [compound 201]: the “A7: inhibition of radioligand binding” value at Human μ-opioid (MOP) (FlashPlate) was “− (“−” indicates less than 50% inhibition at 10 μM)”. For the same molecule, the “A8: inhibition of radioligand binding” value on Human neurokinin (NK1) (filtration) is reported as “+ (“+” indicates greater than 50% inhibition at 10 μM)”. The “A4: inhibition of radioligand binding” value at Human Melanocortin (MC4) (FlashPlate) is on record as “− (“−” indicates less than 50% inhibition at 10 μM)”. Also, at Human Melanocortin (MC3) (FlashPlate), the “A3: inhibition of radioligand binding” value is “− (“−” indicates less than 50% inhibition at 10 μM)”. In addition, at Human κ-Opioid (KOP) (filtration), the “A2: inhibition of radioligand binding” value was “− (“−” indicates less than 50% inhibition at 10 μM)”. The “A1: inhibition of radioligand binding” value on Human δ-opioid (DOP) (FlashPlate) is given as “− (“−” indicates less than 50% inhibition at 10 μM)”. Moreover, the “A6: inhibition of radioligand binding” value in [1] ([125I]-S36057, FlashPlate) is “− (“−” indicates less than 50% inhibition at 10 μM)”. Besides, the “A5: inhibition of radioligand binding” value on Human melanocortin (MC5) (FlashPlate) is “+ (“+” indicates greater than 50% inhibition at 10 μM)”. Besides, the “A10: inhibition of radioligand binding” value at Human opioid (ORL1) (FlashPlate) is given as “− (“−” indicates less than 50% inhibition at 10 μM)”. Also, on Mouse urotensin (mUR2) (FlashPlate), the “A11: inhibition of radioligand binding” value is reported as “− (“−” indicates less than 50% inhibition at 10 μM)”. Also, in experiment [2] (FlashPlate), the “A9: inhibition of radioligand binding” value was “− (“−” indicates less than 50% inhibition at 10 μM)”.

For `N=C(N)NCC(=O)NC1C(OCc2ccc(-c3ccccc3)cc2)OC(COCc2ccc3ccccc3c2)C(O)C1OCc1ccc(-c2ccccc2)cc1` (centres unmarked) [compound 405], the “A7: inhibition of radioligand binding” value on Human μ-opioid (MOP) (human MOP membranes) is given as “− (“−” indicates less than 50% inhibition at 10 μM)”. In addition, the “A8: inhibition of radioligand binding” value at Human neurokinin (NK1) (human NK1 membranes) is “+ (“+” indicates greater than 50% inhibition at 10 μM)”. Further, on Human Melanocortin (MC4) (human MC4 membranes), the “A4: inhibition of radioligand binding” value is listed as “− (“−” indicates less than 50% inhibition at 10 μM)”. Moreover, the “A3: inhibition of radioligand binding” value at Human Melanocortin (MC3) (human MC3 membranes) was “+ (“+” indicates greater than 50% inhibition at 10 μM)”. Besides, the “A2: inhibition of radioligand binding” value on Human κ-Opioid (KOP) (human KOP membranes) is recorded as “− (“−” indicates less than 50% inhibition at 10 μM)”. In addition, the “A1: inhibition of radioligand binding” value at Human δ-opioid (DOP) (human DOP membranes) is listed as “− (“−” indicates less than 50% inhibition at 10 μM)”. The “A6: inhibition of radioligand binding” value in experiment [1] (setting [3]) is given as “− (“−” indicates less than 50% inhibition at 10 μM)”. In addition, at Human melanocortin (MC5) (human MC5 membranes), the “A5: inhibition of radioligand binding” value is “+ (“+” indicates greater than 50% inhibition at 10 μM)”. Moreover, the “A10: inhibition of radioligand binding” value at Human opioid (ORL1) (human ORL1 membranes) was “− (“−” indicates less than 50% inhibition at 10 μM)”. Further, on Mouse urotensin (mUR2) (mouse mUR2 membranes), the “A11: inhibition of radioligand binding” value is “− (“−” indicates less than 50% inhibition at 10 μM)”. Also, the “A9: inhibition of radioligand binding” value in experiment [2] (human NPY-Y1 membranes) was “− (“−” indicates less than 50% inhibition at 10 μM)”.
